Assay results taken from patent publication US5968912A, “Methods for immunosuppressing” (Immune Modulation, Inc., priority 1997, dated 1999).

Tested on: Interferon-gamma
Assay: Interferon-gamma production in PHA-stimulated PBMC cultures
Type: cell-based, human
Set-up: % Inhibition of IFN-γ production: concentration or dose not given beside the values
Experimental: Production of autocrine growth factors (IL-2, IL-4, IL-10 and Interferon-gamma) in PHA-stimulated human PBMC cultures
Culture supernatants were collected at the times indicated and frozen at -20° C. At the end of 96 hr., all supernatants were assayed by enzyme immunoassay for the presence of the cytokines: interleukin-2, -4, -10 and interferon (IFN)-gamma. Results were expressed in pg/mL concentration of cytokine and % inhibition of cytokine production.

CCCN(CCC)c1ncnc2c1ncn2[C@@H]1O[C@@H]2COP(=O)(O)O[C@H]2[C@H]1O [HE-33, N^6,N^6 -di-n-Propyl-c-AMP]
% Inhibition of IFN-γ production (24 hours): 0% | IFN-γ production (24 hours): 980 pg/mL | % Inhibition of IFN-γ production (48 hours): 9% | IFN-γ production (48 hours): 6146 pg/mL | % Inhibition of IFN-γ production (72 hours): 0% | IFN-γ production (72 hours): 5390 pg/mL | % Inhibition of IFN-γ production (96 hours): 0% | IFN-γ production (96 hours): 6105 pg/mL
